Experimental data reported in PMC4490944 (Journal of immunology (Baltimore, Md. : 1950), 2015).
No end group written: not given here. Alexa 488 = Alexa-488 fluorophore (from tetrafluorophenyl ester) on the Lys side-chain amine

Key:
[1] = molecular target: T1, HLA-DR1 (DR1) (DRA*0101/DRB1*010101) (Homo sapiens, UniProt P01903+P01911, A100R/D57E/F55L/F60I/F76Y/I96L/L162R/M171V/P40L/Q125E/R42F/V115G/Y59C); experiment: MHC II stabilization assay; details: 1 μM DR1-W1A with 1 μM DM, or 1 μM DM and 50 μM W1A, 37 °C 1 hour, pH 5.5, Superdex200; at least four independent experiments
MHC II = details: cited from earlier work
[2] = Peptide occupancy, quantitative amino acid analysis of acid-eluted material; details: control DM sample
[3] = molecular target: T1, HLA-DR1 (DR1) (DRA*0101/DRB1*010101); experiment: Numerical modeling; assay type: binding; details: best fit value, Scheme V; DM-MHC resolves into inactive MHC II in the absence of peptides; kept the same for HA and CLIP; 0.4 μM DR1, 0.4 μM DM
[4] = molecular target: DM-MHC II intermediate (complex of HLA-DM with active peptide-free DR1) (human) (UniProt P28067); experiment: fluorescence polarisation

In the case of Ac-GSDARFLRGYHQYA [W1A], the “inhibition of aggregation of DR1 loaded with weakly binding peptide W1A” value [1] is listed as “Excess of peptides but not DM could inhibit the aggregation of MHC II” and the “susceptibility to DM-mediated peptide release” value (MHC II; DR1-bound) is listed as “extremely susceptible to DM-mediated peptide release”.

For “DM: soluble extracellular domains of recombinant DM expressed in Drosophila S2 cells”, the “amino acid content of acid-eluted material” value [2] was 3.46 nmol amino acid per 50 nmol protein.

For Ac-VSKMRMATPLLMQ [CLIP], the k5 [3] is listed as 0.36 min⁻¹ and the “intrinsic and DM-catalyzed dissociation half-life” value (MHC II; as previously reported) is listed as ~ 5 hours.

In the case of Ac-VSK(Alexa 488)MRMATPLLMQ [Alexa488-labeled CLIP peptide (Ac-…)], the k6 (another combination that gives the same fit) [4] is reported as 47500 M⁻¹ s⁻¹, the k6 (peptide binds the intermediate DM-MHC to give DM-MHCpep') [4] is reported as 86800 M⁻¹ s⁻¹ and the k-6 (peptide leaves DM-MHCpep') [4] is reported as 0.022 min⁻¹.
